Patent US7820623B2 (priority 2006, dated 2010)
Where two headings read alike, the source gives them in different places. Bridge positions count the residues as written; N and C are the ends. Square brackets hold non-standard residues; d marks the D form. Peptide text beside a SMILES is read from it. 1Nal = N[C@@H](Cc1cccc2ccccc12)C(=O)O

Experiments:
[1] = system: thapsigargin-induced IL-2 production in human whole blood
[2] = system: thapsigargin-induced IFN-g production in human whole blood; assay type: cell-based
[3] = read-out: Analogue Activity (IC50) WB/IL-2
[4] = read-out: Analogue Activity (IC50) WB/IFNg

Molecule	IC50 [1, 3]	IC50 [2, 4]	other results
CC[C@H](C)[C@@H]1NC(=O)[C@H](CCCCN)NC(=O)[C@@H](NC(=O)[C@H](CCCCN)NC(=O)[C@@H](NC(=O)[C@H](CC(N)=O)NC(=O)[C@@H](NC(=O)[C@@H](NC(=O)[C@@H](NC(=O)CN)C(C)C)[C@@H](C)CC)[C@@H](C)CC)C(C)C)CSSC[C@@H]2NC(=O)[C@H](CCCCN)NC(=O)CNC(=O)[C@H](Cc3ccccc3)NC(=O)[C@H](CCCNC(=N)N)NC(=O)[C@H](CCSC)NC(=O)CNC(=O)[C@H](C)NC(=O)[C@H](CCCCN)NC(=O)[C@H](CCCCN)NC(=O)[C@@H]3CSSC[C@@H](C(=O)N[C@H](C(=O)N4CCC[C@H]4C(=O)N[C@@H](CCCCN)C(=O)O)[C@@H](C)O)NC(=O)[C@H](Cc4c[nH]cn4)NC(=O)[C@H](CSSC[C@H](NC(=O)[C@H](CCC(N)=O)NC(=O)[C@H](CCCNC(=N)N)NC(=O)[C@H](CO)NC1=O)C(=O)N[C@@H](CC(C)C)C(=O)N[C@@H](CCC(=O)O)C(=O)N1CCC[C@H]1C(=O)N3)NC(=O)[C@H](CCCCN)NC(=O)[C@H](CCC(=O)O)NC(=O)[C@H](CC(N)=O)NC(=O)[C@H](CCSC)NC2=O [G31E] (H-GVIINVKCKISRQCLEPCKKAGMRFGKCMNEKCHCTPK-OH; disulfide 8-28, 14-33, 18-35)	0.095 nM	0.111 nM	–
CC[C@H](C)[C@@H]1NC(=O)[C@H](CCCCN)NC(=O)[C@@H](NC(=O)[C@H](CCCCN)NC(=O)[C@@H](NC(=O)[C@H](CC(N)=O)NC(=O)[C@@H](NC(=O)[C@@H](NC(=O)[C@@H](NC(=O)CN)C(C)C)[C@@H](C)CC)[C@@H](C)CC)C(C)C)CSSC[C@@H]2NC(=O)[C@H](CCCCN)NC(=O)CNC(=O)[C@H](Cc3cccc4ccccc34)NC(=O)[C@H](CCCNC(=N)N)NC(=O)[C@H](CCSC)NC(=O)CNC(=O)[C@H](C)NC(=O)[C@H](CCCCN)NC(=O)[C@H](CCCCN)NC(=O)[C@@H]3CSSC[C@@H](C(=O)N[C@H](C(=O)N4CCC[C@H]4C(=O)N[C@@H](CCCCN)C(=O)O)[C@@H](C)O)NC(=O)[C@H](Cc4c[nH]cn4)NC(=O)[C@H](CSSC[C@H](NC(=O)[C@H](CCC(N)=O)NC(=O)[C@H](CCCNC(=N)N)NC(=O)[C@H](CO)NC1=O)C(=O)N[C@@H](CC(C)C)C(=O)N[C@@H](CCC(=O)O)C(=O)N1CCC[C@H]1C(=O)N3)NC(=O)[C@H](CCCCN)NC(=O)CNC(=O)[C@H](CC(N)=O)NC(=O)[C@H](CCSC)NC2=O [F25Nal] (H-GVIINVKCKISRQCLEPCKKAGMR[1Nal]GKCMNGKCHCTPK-OH; disulfide 8-28, 14-33, 18-35)	1.73 nM	1.69 nM	–
GVIIAVKCKISRQCLEPCKKAGMRFGKCMNGKCHCTPK [Ala-5 (SEQ ID No: 1404)]	–	–	IC50 ([1]; read-out: Average IC50 IL-2): 0.0679 nM; IC50 ([2]; read-out: Average IC50 IFNg): 0.067 nM
R12A, E16K, K20D (GVIINVKCKISAQCLKPCKDAGMRFGKCMNGKCHCTPK)	–	–	IC50 ([1]; read-out: WB/IL-2 (IC50)): 0.041 nM; IC50 ([2]; read-out: WB/IFNg (IC50)): 0.092 nM
CC[C@H](C)[C@@H]1NC(=O)[C@H](CCCCN)NC(=O)[C@@H](NC(=O)[C@H](CCCCN)NC(=O)[C@@H](NC(=O)[C@H](CC(N)=O)NC(=O)[C@@H](NC(=O)[C@@H](NC(=O)[C@@H](NC(=O)CN)C(C)C)[C@@H](C)CC)[C@@H](C)CC)C(C)C)CSSC[C@@H]2NC(=O)[C@H](CCCCN)NC(=O)CNC(=O)[C@H](Cc3ccccc3)NC(=O)[C@H](CCCNC(=N)N)NC(=O)[C@H](CCSC)NC(=O)CNC(=O)[C@H](C)NC(=O)[C@H](CCCCN)NC(=O)[C@H](CCCCN)NC(=O)[C@@H]3CSSC[C@@H](C(=O)N[C@H](C(=O)N4CCC[C@H]4C(=O)N[C@@H](CCCCN)C(=O)O)[C@@H](C)O)NC(=O)[C@H](Cc4c[nH]cn4)NC(=O)[C@H](CSSC[C@H](NC(=O)[C@H](CCC(N)=O)NC(=O)[C@H](CCCNC(=N)N)NC(=O)[C@H](CO)NC1=O)C(=O)N[C@@H](C)C(=O)N[C@@H](CCC(=O)O)C(=O)N1CCC[C@H]1C(=O)N3)NC(=O)[C@H](CCCCN)NC(=O)CNC(=O)[C@H](CC(N)=O)NC(=O)[C@H](CCSC)NC2=O [L15A] (H-GVIINVKCKISRQCAEPCKKAGMRFGKCMNGKCHCTPK-OH; disulfide 8-28, 14-33, 18-35)	0.107 nM	0.107 nM	–
CC[C@H](C)[C@@H]1NC(=O)[C@H](CCCCN)NC(=O)[C@@H](NC(=O)[C@H](CCCCN)NC(=O)[C@@H](NC(=O)[C@H](CC(N)=O)NC(=O)[C@@H](NC(=O)[C@@H](NC(=O)[C@@H](NC(=O)CN)C(C)C)[C@@H](C)CC)[C@@H](C)CC)C(C)C)CSSC[C@@H]2NC(=O)[C@H](CCCCN)NC(=O)CNC(=O)[C@H](Cc3ccccc3)NC(=O)[C@H](CCCNC(=N)N)NC(=O)[C@H](CCSC)NC(=O)CNC(=O)[C@H](C)NC(=O)[C@H](CCCCN)NC(=O)[C@H](Cc3cccc4ccccc34)NC(=O)[C@@H]3CSSC[C@@H](C(=O)N[C@H](C(=O)N4CCC[C@H]4C(=O)N[C@@H](CCCCN)C(=O)O)[C@@H](C)O)NC(=O)[C@H](Cc4c[nH]cn4)NC(=O)[C@H](CSSC[C@H](NC(=O)[C@H](CCC(N)=O)NC(=O)[C@H](CCCNC(=N)N)NC(=O)[C@H](CO)NC1=O)C(=O)N[C@@H](CC(C)C)C(=O)N[C@@H](CCC(=O)O)C(=O)N1CCC[C@H]1C(=O)N3)NC(=O)[C@H](CCCCN)NC(=O)CNC(=O)[C@H](CC(N)=O)NC(=O)[C@H](CCSC)NC2=O [K19Nal] (H-GVIINVKCKISRQCLEPC[1Nal]KAGMRFGKCMNGKCHCTPK-OH; disulfide 8-28, 14-33, 18-35)	0.058 nM	0.099 nM	–
CC[C@H](C)[C@@H]1NC(=O)[C@H](C)NC(=O)[C@@H](NC(=O)[C@H](CCCCN)NC(=O)[C@@H](NC(=O)[C@H](CC(N)=O)NC(=O)[C@@H](NC(=O)[C@@H](NC(=O)[C@@H](NC(=O)CN)C(C)C)[C@@H](C)CC)[C@@H](C)CC)C(C)C)CSSC[C@@H]2NC(=O)[C@H](CCCCN)NC(=O)CNC(=O)[C@H](Cc3ccccc3)NC(=O)[C@H](CCCNC(=N)N)NC(=O)[C@H](CCSC)NC(=O)CNC(=O)[C@H](C)NC(=O)[C@H](CCCCN)NC(=O)[C@H](CCCCN)NC(=O)[C@@H]3CSSC[C@@H](C(=O)N[C@H](C(=O)N4CCC[C@H]4C(=O)N[C@@H](CCCCN)C(=O)O)[C@@H](C)O)NC(=O)[C@H](Cc4c[nH]cn4)NC(=O)[C@H](CSSC[C@H](NC(=O)[C@H](CCC(N)=O)NC(=O)[C@H](CCCNC(=N)N)NC(=O)[C@H](CO)NC1=O)C(=O)N[C@@H](CC(C)C)C(=O)N[C@@H](CCC(=O)O)C(=O)N1CCC[C@H]1C(=O)N3)NC(=O)[C@H](CCCCN)NC(=O)CNC(=O)[C@H](CC(N)=O)NC(=O)[C@H](CCSC)NC2=O [K9A] (H-GVIINVKCAISRQCLEPCKKAGMRFGKCMNGKCHCTPK-OH; disulfide 8-28, 14-33, 18-35)	0.0796 nM	0.0711 nM	–
GVIINAKCKISRQCLEPCKKAGMRFGKCMNGKCHCTPK [Ala-6 (SEQ ID No: 1405)]	–	–	IC50 ([1]; read-out: Average IC50 IL-2): 0.0733 nM; IC50 ([2]; read-out: Average IC50 IFNg): 0.0805 nM
CC[C@H](C)[C@@H]1NC(=O)[C@H](CCCCN)NC(=O)[C@@H](NC(=O)[C@H](CCCCN)NC(=O)[C@@H](NC(=O)[C@H](CC(N)=O)NC(=O)[C@@H](NC(=O)[C@@H](NC(=O)[C@@H](NC(=O)CN)C(C)C)[C@@H](C)CC)[C@@H](C)CC)C(C)C)CSSC[C@@H]2NC(=O)[C@H](CCCCN)NC(=O)CNC(=O)[C@H](Cc3ccccc3)NC(=O)[C@H](CCCNC(=N)N)NC(=O)[C@H](CCSC)NC(=O)CNC(=O)[C@H](C)NC(=O)[C@H](CCCCN)NC(=O)[C@H](CCCCN)NC(=O)[C@@H]3CSSC[C@@H](C(=O)N[C@H](C(=O)N4CCC[C@H]4C(=O)N[C@@H](CCCCN)C(=O)O)[C@@H](C)O)NC(=O)[C@H](Cc4c[nH]cn4)NC(=O)[C@H](CSSC[C@H](NC(=O)[C@H](CCC(N)=O)NC(=O)[C@H](CCCNC(=N)N)NC(=O)[C@H](CO)NC1=O)C(=O)N[C@@H](CC(C)C)C(=O)N[C@@H](CCC(=O)O)C(=O)N[C@@H](CCC(=O)O)C(=O)N3)NC(=O)[C@H](CCCCN)NC(=O)CNC(=O)[C@H](CC(N)=O)NC(=O)[C@H](CCSC)NC2=O [P17E] (H-GVIINVKCKISRQCLEECKKAGMRFGKCMNGKCHCTPK-OH; disulfide 8-28, 14-33, 18-35)	0.52 nM	0.947 nM	–
CC[C@H](C)[C@@H]1NC(=O)[C@H](CCCCN)NC(=O)[C@@H](NC(=O)[C@H](CCCCN)NC(=O)[C@@H](NC(=O)[C@H](CC(N)=O)NC(=O)[C@@H](NC(=O)[C@@H](NC(=O)[C@@H](NC(=O)CN)C(C)C)[C@@H](C)CC)[C@@H](C)CC)C(C)C)CSSC[C@@H]2NC(=O)[C@H](CCCCN)NC(=O)CNC(=O)[C@H](Cc3ccccc3)NC(=O)[C@H](CCCNC(=N)N)NC(=O)[C@H](CCSC)NC(=O)CNC(=O)[C@H](C)NC(=O)[C@H](CCCCN)NC(=O)[C@H](CCCCN)NC(=O)[C@@H]3CSSC[C@@H](C(=O)N[C@H](C(=O)N4CCC[C@H]4C(=O)N[C@@H](CCCCN)C(=O)O)[C@@H](C)O)NC(=O)[C@H](Cc4c[nH]cn4)NC(=O)[C@H](CSSC[C@H](NC(=O)[C@H](CCC(N)=O)NC(=O)[C@H](CCCNC(=N)N)NC(=O)[C@H](CO)NC1=O)C(=O)N[C@@H](CC(C)C)C(=O)N[C@@H](CCC(=O)O)C(=O)N[C@@H](C)C(=O)N3)NC(=O)[C@H](CCCCN)NC(=O)CNC(=O)[C@H](CC(N)=O)NC(=O)[C@H](CCSC)NC2=O [P17A] (H-GVIINVKCKISRQCLEACKKAGMRFGKCMNGKCHCTPK-OH; disulfide 8-28, 14-33, 18-35)	0.173 nM	0.173 nM	–
GVIINVKCKISRQCLEPCKKAAMRFGKCMNGKCHCTPK [Ala-22 (SEQ ID No: 1418)]	–	–	IC50 ([1]; read-out: Average IC50 IL-2): 7.09 nM; IC50 ([2]; read-out: Average IC50 IFNg): 7.09 nM
E16K, K20D, H34A (GVIINVKCKISRQCLKPCKDAGMRFGKCMNGKCACTPK)	–	–	IC50 ([1]; read-out: WB/IL-2 (IC50)): 65.5 nM; IC50 ([2]; read-out: WB/IFNg (IC50)): 26.6 nM
